Measurements published in patent US20260256792A1, “TREATMENT OF CHRONIC SPONTANEOUS URTICARIA BY ADMINISTERING (R)-2-[3-[4-AMINO-3-(2-FLUORO-4-PHENOXY-PHENYL)PYRAZOLO[3,4-D]PYRIMIDIN-1-YL]PIPERIDINE-1-CARBONYL]-4-METHYL-4-[4-(OXETAN-3-YL)PIPERAZIN-1-YL]PENT-2-ENENITRILE” (priority 2023, published 2026).

Test system: moderate-to-severe chronic spontaneous urticaria (CSU)
Test: Phase 2 CSU study: itch severity score over 7 days (ISS7)
Assay type: in vivo, human
Details: for ISS7 Median / ISS7 Mean (SD): End of Study
From the text: The study comprises a 12 week, randomized, double-blind, placebo-controlled, multi-center, dose-ranging efficacy and safety phase, followed by a 40 week open label extension (OLE) phase (see FIG. 1). The study consists of three phases and an optional OLE phase. […] Clinically, CSU is characterized by the spontaneous and recurrent appearance of pruritic hives. The proposed primary endpoints were the UAS7 at Week 12 in EU and EU reference countries and the ISS7 in the US. Regardless of where a participant was from, all assessments were the same. The UAS7 score is a composite score containing both the HSS7 and the ISS7. This allowed a global assessment of the two key components of urticaria: hives and itch. […] The UAS is a validated PRO measure. […] The daily UAS scores range from 0 to 6 point/day. […] Patients were to complete the UAS using the e-diary. […] The following secondary endpoints were to be analyzed using the same approach as for the primary endpoint: • Change from baseline in UAS7 at Week 4 • Change from baseline in UAS7 at Week 12 (for US and US reference countries) • Change from baseline in ISS7 at Week 12 (except US and US reference countries) • Change from baseline in HSS7 at Week 12

[1] = 400 mg TID, Prior Omalizumab Use
[2] = ITT Population, 400 mg BID, Week 2
[3] = ITT Population, 400 mg QPM, Week 3
[4] = ITT Population, 400 mg QPM, Week 5
[5] = ITT Population, 400 mg TID, Week 1
[6] = ITT Population, 400 mg TID, Week 12
[7] = ITT population, 400 mg BID, Week 1
[8] = ITT population, 400 mg BID, Week 3
[9] = ITT population, 400 mg BID, Week 4
[10] = ITT population, 400 mg BID, Week 5
[11] = ITT population, 400 mg BID, Week 6
[12] = ITT population, 400 mg BID, Week 7
[13] = ITT population, 400 mg BID, Week 8
[14] = ITT population, 400 mg BID, Week 9
[15] = ITT population, 400 mg BID, Week 10
[16] = ITT population, 400 mg BID, Week 11
[17] = ITT population, 400 mg BID, Week 12
[18] = ITT population, 400 mg QPM, Week 1
[19] = ITT population, 400 mg QPM, Week 2

Structure (SMILES): CC(C)(C=C(C#N)C(=O)N1CCC[C@@H](n2nc(-c3ccc(Oc4ccccc4)cc3F)c3c(N)ncnc32)C1)N1CCN(C2COC2)CC1 [rilzabrutinib, (R)-2-[3-[4-amino-3-(2-fluoro-4-phenoxy-phenyl)pyrazolo[3,4-d]pyrimidin-1-yl]piperidine-1-carbonyl]-4-methyl-4-[4-(oxetan-3-yl)piperazin-1-yl]pent-2-enenitrile]
- ISS7 Median (400 mg QPM, Omalizumab-Naïve): 2.00
- ISS7 Mean (SD) (400 mg TID, Omalizumab-Naïve): 11.40 (6.11)
- ISS7 Mean (SD) [1]: 9.50 (6.36)
- ISS7 Median [1]: 9.50
- Imputed non-responder n (%) (ISS7 reduction of 5 points or more) [2]: 2 (4.9) n (%)
- Non-responder n (%) (ISS7 reduction of 5 points or more) [2]: 19 (46.3) n (%)
- OR for rilzabrutinib vs. placebo (ISS7 reduction of 5 points or more) [2]: 2.693
- RRD (%) for rilzabrutinib vs. placebo (ISS7 reduction of 5 points or more) [2]: 23.6%
- Responder n (%) (ISS7 reduction of 5 points or more) [2]: 22 (53.7) n (%)
- Imputed non-responder n (%) (ISS7 reduction of 5 points or more) [3]: 0 n (%)
- Non-responder n (%) (ISS7 reduction of 5 points or more) [3]: 20 (52.6) n (%)
- OR for rilzabrutinib vs. placebo (ISS7 reduction of 5 points or more) [3]: 1.881
- RRD (%) for rilzabrutinib vs. placebo (ISS7 reduction of 5 points or more) [3]: 15.9%
- Responder n (%) (ISS7 reduction of 5 points or more) [3]: 18 (47.4) n (%)
- Imputed non-responder n (%) (ISS7 reduction of 5 points or more) [4]: 2 (5.3) n (%)
- Non-responder n (%) (ISS7 reduction of 5 points or more) [4]: 21 (55.3) n (%)
- OR for rilzabrutinib vs. placebo (ISS7 reduction of 5 points or more) [4]: 0.781
- RRD (%) for rilzabrutinib vs. placebo (ISS7 reduction of 5 points or more) [4]: 6.2%
- Responder n (%) (ISS7 reduction of 5 points or more) [4]: 17 (44.7) n (%)
- Imputed non-responder n (%) (ISS7 reduction of 5 points or more) [5]: 0 n (%)
- Non-responder n (%) (ISS7 reduction of 5 points or more) [5]: 14 (34.1) n (%)
- OR for rilzabrutinib vs. placebo (ISS7 reduction of 5 points or more) [5]: 6.428
- RRD (%) for rilzabrutinib vs. placebo (ISS7 reduction of 5 points or more) [5]: 42.3%
- Responder n (%) (ISS7 reduction of 5 points or more) [5]: 27 (65.9) n (%)
- Imputed non-responder n (%) (ISS7 reduction of 5 points or more) [6]: 11 (26.8) n (%)
- Non-responder n (%) (ISS7 reduction of 5 points or more) [6]: 18 (43.9) n (%)
- OR for rilzabrutinib vs. placebo (ISS7 reduction of 5 points or more) [6]: 1.371
- RRD (%) for rilzabrutinib vs. placebo (ISS7 reduction of 5 points or more) [6]: 7.9%
- Responder n (%) (ISS7 reduction of 5 points or more) [6]: 23 (56.1) n (%)
- Imputed non-responder n (%) (ISS7 reduction of 5 points or more) [7]: 1 (2.4) n (%)
- Non-responder n (%) (ISS7 reduction of 5 points or more) [7]: 21 (51.2) n (%)
- OR for rilzabrutinib vs. placebo (ISS7 reduction of 5 points or more) [7]: 3.262
- RRD (%) for rilzabrutinib vs. placebo (ISS7 reduction of 5 points or more) [7]: 25.5%
- Responder n (%) (ISS7 reduction of 5 points or more) [7]: 20 (48.8) n (%)
- Imputed non-responder n (%) (ISS7 reduction of 5 points or more) [8]: 1 (2.4) n (%)
- Non-responder n (%) (ISS7 reduction of 5 points or more) [8]: 19 (46.3) n (%)
- OR for rilzabrutinib vs. placebo (ISS7 reduction of 5 points or more) [8]: 2.451
- RRD (%) for rilzabrutinib vs. placebo (ISS7 reduction of 5 points or more) [8]: 21.5%
- Responder n (%) (ISS7 reduction of 5 points or more) [8]: 22 (53.7) n (%)
- Imputed non-responder n (%) (ISS7 reduction of 5 points or more) [9]: 4 (9.8) n (%)
- Non-responder n (%) (ISS7 reduction of 5 points or more) [9]: 19 (46.3) n (%)
- RRD (%) for rilzabrutinib vs. placebo (ISS7 reduction of 5 points or more) [9]: 5.6%
- Responder n (%) (ISS7 reduction of 5 points or more) [9]: 22 (53.7) n (%)
- Imputed non-responder n (%) (ISS7 reduction of 5 points or more) [10]: 5 (12.2) n (%)
- Non-responder n (%) (ISS7 reduction of 5 points or more) [10]: 18 (43.9) n (%)
- RRD (%) for rilzabrutinib vs. placebo (ISS7 reduction of 5 points or more) [10]: 2.7%
- Responder n (%) (ISS7 reduction of 5 points or more) [10]: 23 (56.1) n (%)
- Imputed non-responder n (%) (ISS7 reduction of 5 points or more) [11]: 4 (9.8) n (%)
- Non-responder n (%) (ISS7 reduction of 5 points or more) [11]: 20 (48.8) n (%)
- RRD (%) for rilzabrutinib vs. placebo (ISS7 reduction of 5 points or more) [11]: 2.7%
- Responder n (%) (ISS7 reduction of 5 points or more) [11]: 21 (51.2) n (%)
- Imputed non-responder n (%) (ISS7 reduction of 5 points or more) [12]: 4 (9.8) n (%)
- Non-responder n (%) (ISS7 reduction of 5 points or more) [12]: 19 (46.3) n (%)
- OR for rilzabrutinib vs. placebo (ISS7 reduction of 5 points or more) [12]: 1.258
- RRD (%) for rilzabrutinib vs. placebo (ISS7 reduction of 5 points or more) [12]: 5.5%
- Responder n (%) (ISS7 reduction of 5 points or more) [12]: 22 (53.7) n (%)
- Imputed non-responder n (%) (ISS7 reduction of 5 points or more) [13]: 5 (12.2) n (%)
- Non-responder n (%) (ISS7 reduction of 5 points or more) [13]: 16 (39.0) n (%)
- OR for rilzabrutinib vs. placebo (ISS7 reduction of 5 points or more) [13]: 1.388
- RRD (%) for rilzabrutinib vs. placebo (ISS7 reduction of 5 points or more) [13]: 8.3%
- Responder n (%) (ISS7 reduction of 5 points or more) [13]: 25 (61.0) n (%)
- Imputed non-responder n (%) (ISS7 reduction of 5 points or more) [14]: 9 (22.0) n (%)
- Non-responder n (%) (ISS7 reduction of 5 points or more) [14]: 19 (46.3) n (%)
- OR for rilzabrutinib vs. placebo (ISS7 reduction of 5 points or more) [14]: 1.233
- RRD (%) for rilzabrutinib vs. placebo (ISS7 reduction of 5 points or more) [14]: 5.6%
- Responder n (%) (ISS7 reduction of 5 points or more) [14]: 22 (53.7) n (%)
- Imputed non-responder n (%) (ISS7 reduction of 5 points or more) [15]: 10 (24.4) n (%)
- Non-responder n (%) (ISS7 reduction of 5 points or more) [15]: 22 (53.7) n (%)
- OR for rilzabrutinib vs. placebo (ISS7 reduction of 5 points or more) [15]: 0.786
- RRD (%) for rilzabrutinib vs. placebo (ISS7 reduction of 5 points or more) [15]: −6.2%
- Responder n (%) (ISS7 reduction of 5 points or more) [15]: 19 (46.3) n (%)
- Imputed non-responder n (%) (ISS7 reduction of 5 points or more) [16]: 9 (22.0) n (%)
- Non-responder n (%) (ISS7 reduction of 5 points or more) [16]: 19 (46.3) n (%)
- OR for rilzabrutinib vs. placebo (ISS7 reduction of 5 points or more) [16]: 0.837
- RRD (%) for rilzabrutinib vs. placebo (ISS7 reduction of 5 points or more) [16]: −4.5%
- Responder n (%) (ISS7 reduction of 5 points or more) [16]: 22 (53.7) n (%)
- Imputed non-responder n (%) (ISS7 reduction of 5 points or more) [17]: 14 (34.1) n (%)
- Non-responder n (%) (ISS7 reduction of 5 points or more) [17]: 21 (51.2) n (%)
- OR for rilzabrutinib vs. placebo (ISS7 reduction of 5 points or more) [17]: 1.063
- RRD (%) for rilzabrutinib vs. placebo (ISS7 reduction of 5 points or more) [17]: 1.6%
- Responder n (%) (ISS7 reduction of 5 points or more) [17]: 20 (48.8) n (%)
- Imputed non-responder n (%) (ISS7 reduction of 5 points or more) [18]: 0 n (%)
- Non-responder n (%) (ISS7 reduction of 5 points or more) [18]: 25 (65.8) n (%)
- OR for rilzabrutinib vs. placebo (ISS7 reduction of 5 points or more) [18]: 1.855
- RRD (%) for rilzabrutinib vs. placebo (ISS7 reduction of 5 points or more) [18]: 12.7%
- Responder n (%) (ISS7 reduction of 5 points or more) [18]: 13 (34.2) n (%)
- Imputed non-responder n (%) (ISS7 reduction of 5 points or more) [19]: 0 n (%)
- Non-responder n (%) (ISS7 reduction of 5 points or more) [19]: 23 (60.5) n (%)
- OR for rilzabrutinib vs. placebo (ISS7 reduction of 5 points or more) [19]: 1.662
- Responder n (%) (ISS7 reduction of 5 points or more) [19]: 15 (39.5) n (%)
- Imputed non-responder n (%) (ISS7 reduction of 5 points or more) (ITT population, 400 mg QPM, Week 4): 1 (2.6) n (%)
